Data: patent publication US12252697B2 (priority 2019, dated 2025)
Entries after “also recorded” stand apart in the source; their conditions may differ.

Legend:
IAA2 expression = IAA2 expression by Q-PCR after auxin treatment of seedlings; assay type: in vivo, Sisymbrium orientale; settings: for increase of IAA2 expression compared to untreated plants and DMSO control: 2 hr exposure
Description: To study IAA2 expression under auxin treatments sterilized seeds from F5 RILs for each phenotype were planted in half MS and grown until expanded cotyledon stage (size was about 2 cm from root to cotyledon tips). […] After exposure plants were collected into 2 ml centrifuge tubes and frozen in liquid nitrogen. RNA was extracted using Direct-zol RNA Microprep from Zymo research, DNAase treatment was done using DNaseI from Invitogen—ThermoFisher and cDNA was generated using iScript™ according to each manufacture protocol. Q-PCR (CFX Connect™ Real-Time PCR Detection System thermal cycler, BioRad, Hercules, Calif.) was used to determine IAA2 expression. The qPCR reaction contained 12.5 μl of SYBR Green (PerfeCTa SYBR Green FastMix), 1 μl each of forward and reverse primers (5 μM), and 1 uL of cDNA for a final reaction volume of […] parameters were 50° C. for 2 min, 95° C. for 10 min, and 40 cycles of 95° C. for 30 s and 60° C. for 1 min. Relative expression quantification was calculated by Expression=2^ΔCt, where ΔCT=CT(average of Actin2 and Cyclophilin)−CT(IAA2). Each biological sample was run in two technical replicates.

TIR1/auxin/IAA complex = assay: surface plasmon resonance (SPR) binding assay; parameters: species or system Sisymbrium orientale; settings: mutant IAA2Δ27 peptide vs IAA2 wild-type; compound 50 μM
Source text: In short, this assay measures the binding of auxin and IAA to the receptor protein TIR1 and their unbinding.
Surface plasmon resonance (SPR) experiments were done according to published protocols. TIR1/AFBS was expressed in insect cell culture using a recombinant baculovirus. The construct contained sequences for three affinity tags, namely 6 His, maltose-binding protein (MBP) and FLAG. Initial purification using the His tag was followed by clean-up using FLAG chromatography, the purified protein was used for SPR assays by passing it over a streptavidin chip loaded with biotinylated IAA2/IAA7 degron peptides.
The SPR buffer was Hepes-buffered saline with 10 mM Hepes, 3 mM EDTA, 150 mM NaCl and 0.05% Tween 20. Compounds to be tested were premixed with the protein to a final 50 μM concentration. Binding experiments were run at a flow rate of 30 μl min^−1 using 2.0 min of injection time and 4.0 min of dissociation time. Data from a control channel (mIAA7) and from a buffer+DMSO-only run were subtracted from each sensogram following the standard double reference subtraction protocol.

[1] = tested on: S. orientale populations from Southern Australia; assay: single-rate 2,4-D resistance screen of S. orientale populations; assay type: in vivo, Sisymbrium orientale; settings: eight populations; 250 g ha^-1 2,4-D at 4-leaf stage; leaf curl 48 h, confirmed 21 days
Description: The presence of IAA2Δ27 in other 2,4-D resistant populations of S. orientale was also investigated. Seeds of S. orientale populations were germinated by sowing directly onto the soil surface of seedling trays containing standard potting mix. Once emerged, seedlings were transplanted into 9.5×8.5×9.5 cm punnet pots and grown outdoors at the Waite Campus, University of Adelaide, Australia. At the 4-leaf stage, plants were treated with a single rate of 250 g. a. ha^−1 2,4-D (2,4-D amine 650, FMC) to screen for resistance. Herbicide was applied using a laboratory moving boom pesticide applicator and applied at an equivalent of 109 L ha−1 of water at a pressure of 250 kPa and a speed of 1 m s−1 using Tee-Jet 001 nozzles (Tee-Jet 8001E; Spraying Systems Co., Wheaton, Ill.). Leaf curl was assessed 48 h after treatment, with any plants showing signs of leaf curl considered susceptible and tissue harvested, while the remaining plants were considered resistant and allowed to grow for a further 21 days to confirm resistance and tissue subsequently harvested.

[2] = tested on: Arabidopsis thaliana (Col-0); assay: 2,4-D spray of transformed Arabidopsis; assay type: in vivo; settings: 200 g a.i. ha^-1
Description: Arabidopsis transformation was performed based on established protocols with modifications. IAA2 alleles were amplified by PCR from cDNA generated from RNA extracts of homozygous R and S F5 lines (cross A). RNA was extracted using Direct-zol RNA Miniprep Plus Kit (Zymo). cDNA synthesis was performed using oligo(dT)20 primers from SuperScript™ II Reverse Transcriptase (Invitrogen). Wild-type and mutant alleles were amplified by PCR using PrimeSTAR HS Premix (Takara), using primers linked with restriction enzyme sites for cloning. Purified PCR amplicons were ligated into the pGEM-T Easy Vector (Promega), transformed into E. coli, sequenced by Sanger sequencing, and digested using the restriction sites AscI and BamHI (New England BioLabs). The digested product was then ligated into the binary vector pFGC5941 and cloned into Agrobacterium tumefaciens (strain GV3101). For plant transformation, Agrobacterium 400 mL liquid cultures were incubated at 28 C overnight and after centrifugation, resuspended in a 300 mL transformation solution (5% sucrose and 0.02% Silwet L-77). Each allele of IAA2 was transformed into Arabidopsis thaliana (Col-0) by floral dip and grown to seed production.
For transformant selection, 40 mg of transformed seeds for each IAA2 allele were cleaned with bleach solution (12.5%) and plated at half MS selective media with Cefotaxime (200 mg/L) and glufosinate-ammonium (7.5 mg/L). After two weeks, positive transformants were transferred to a second selective plate with half MS, Cefotaxime (100 mg/L) and glufosinate-ammonium (5 mg/L). After selection, potential transformants were transferred to soil and grown until seed production. For T2 selection, 36 seeds were cleaned and grown on half MS and glufosinate-ammonium (5 mg/L) media. T3 homozygous plants containing just one copy of the T-DNA vector were selected and IAA2 expression was analyzed using the same primers from mustard expression assay (see below), AtCyclophilin and AtActin2 were used as normalization genes. […]

Arabidopsis root growth = assay: root growth assay, transformed Arabidopsis; assay type: in vivo, Arabidopsis thaliana; settings: for root growth tolerance compared with null vector or wild type gene: Arabidopsis transformed with mutant S. orientale IAA2Δ27; for root growth response: Arabidopsis transformed with the null vector
Description: (§1) All root assays were performed on 120 mm square petri dishes with half MS and 1% phytoagar. […] For the mustard root assay, ten seedlings (3 days after germination) of F5 RILs of each phenotype were transferred to an auxin treated or control plate, the root tip of each plant was marked and root growth was evaluated seven days after treatment. For Arabidopsis, sterilized seeds were planted directly on the treated petri dish and incubated at 4° C. for seed […] and moved to the growth chamber after 3 days. T3 homozygous plants of 35::SoIAA2WT, 35::SoIAA2Δ27, the T-DNA insertion line on AtIAA2 and the empty T-DNA from PFGC5941 plasmid as control were used in this study. Twelve plants per construct ware used in total and roots were measured three weeks after the plates were moved to the growth conditions. For all root assays, seeds were gas sterilized for 6 hours using bleach and hydrochloric acid. The plants were grown under controlled conditions of 180 uMol m^−2 light intensity, relative humidity of 60%, 16 hours of day and day/night temperatures of 22/18° C.

[3] = tested on: Sisymbrium orientale PB-R1 plants; settings: PB-R1 plants vs Roseworthy S plants; cited from earlier work
[4] = tested on: S. orientale F3 plants (cross B); assay: progeny test segregation analysis, visual injury after 2,4-D spray; assay type: in vivo, Sisymbrium orientale; settings: 200 gai ha^-1 2,4-D, 28 days after treatment
Description: A progeny test segregation analysis was performed on 219 F3 plants derived from self-pollination of a heterozygous F2 individual from cross B, identified via progeny test due to segregation of 2,4-D resistance in the F3 progeny. Plants were sprayed with 200 gai ha^−1 2,4-D at the 5 true leaf stage. Damage percentage was evaluated at 28 days after treatment. Leaf tissue was harvested and genomic DNA was extracted by CTAB. A KASP assay was performed with primers and methods as described above. To further test the co-segregation between the resistant phenotype and IAA2Δ27, nine each of R and S RILs from cross A and three each of R and S RILs from cross B were genotyped using the KASP assay. Two individuals were genotyped from each RIL.

[5] = tested on: S. orientale RILs root growth; assay: root growth assay, S. orientale inbred lines; assay type: in vivo, Sisymbrium orientale; settings: S. orientale RILs homozygous for IAA2Δ27 vs IAA2 wild-type allele
Description: as §1

[6] = Arabidopsis transformed with wild type S. orientale IAA2

Structure (SMILES) | increase of IAA2 expression compared to untreated plants and DMSO control (IAA2 expression; R seedlings) [fold] | increase of IAA2 expression compared to untreated plants and DMSO control (IAA2 expression; S seedlings) [fold] | relative expression (RE) of IAA2 (IAA2 expression; treated resistant plants) | relative expression (RE) of IAA2 (IAA2 expression; treated susceptible plants) | association of the herbicide/IAA/TIR1 complex (Ka) (TIR1/auxin/IAA complex) | dissociation of the herbicide/IAA/TIR1 complex (Kd) (TIR1/auxin/IAA complex) | root growth tolerance compared with null vector or wild type gene (Arabidopsis root growth) | root growth response (Arabidopsis root growth) | fold more resistant compared to S plants [3] [fold] | root growth tolerance [5] | also measured
O=C(O)COc1ccc(Cl)cc1Cl [2,4-D, 2,4-dichlorophenoxyacetic acid] | 2.5 | 4 | 0.16 | 0.55 | slower association | more rapid dissociation; also recorded: faster | higher tolerance; also recorded: confers resistance | susceptible to inhibition | 22 | – | effect of treatment on IAA2 expression (FIG. 7) (IAA2 expression; S): increases IAA2 expression; populations identified as resistant [1]: four identified as resistant; response to herbicide treatment ([2]; Arabidopsis transformed with S. orientale IAA2Δ27): resistant; response to herbicide treatment [2, 6]: susceptible; also recorded: sensitive; response to herbicide treatment ([2]; wild type Arabidopsis): susceptible; also recorded: sensitive; average injury ([4]; heterozygous plants): 24%; injury ([4]; homozygous resistant plants): 12%; visual injury ([4]; sensitive plants homozygous for IAA2WT): 70%
COc1c(Cl)ccc(Cl)c1C(=O)O [Dicamba] | – | – | – | – | slower association | more rapid dissociation; also recorded: faster | higher tolerance; also recorded: confers resistance | susceptible to inhibition | – | – | root growth response compared with the null vector (Arabidopsis root growth; [6]): slightly more tolerant
O=C(O)c1nc(Cl)ccc1Cl [Clopyralid] | – | – | – | – | – | – | higher tolerance; also recorded: confers resistance | – | – | – | –
O=C(O)Cc1c[nH]c2ccccc12 [IAA, indoleacetic acid] | 9.5 | 7 | 0.62 | 1 | slower association | more rapid dissociation; also recorded: faster | higher tolerance; also recorded: confers resistance | – | – | – | –
COc1c(Cl)ccc(-c2nc(C(=O)OCc3ccccc3)c(Cl)c(N)c2F)c1F [Rinskor (florpyrauxifen-benzyl), florpyrauxifen-benzyl] | – | – | – | – | – | – | – | – | – | confers resistance | root growth tolerance ([5]; listed as fluorpyrauxifen-benzyl): higher tolerance
Cc1cc(Cl)ccc1OCC(=O)O [MCPA] | – | – | – | – | – | – | – | – | 20 | higher tolerance; also recorded: confers resistance | –
